Among the data in publication PMC7709957 (2020) are Kd values, retold here.

The test system of the test is F. ulcerans ZTP riboswitch (pfl RNA, 75-nt aptamer domain, crystal construct) (RNA, riboswitch) UAUCAGUUAUAUGACUGACGGAACGUGGAAUUAACCACAUGAAGUAUAACGAUGACAAUGCCGACCGUCUGGGCG
The test can be described thus: ITC. Particulars: 150 mM KCl, 10 mM MgCl2, 50 mM Hepes-KOH pH 7.4, 37 °C.

For `NC(=O)c1ncn([C@@H]2O[C@H](CO)[C@@H](O)[C@H]2O)c1N`, the Kd (usually the equilibrium constant for the complex coming apart) was 2.3 ± 0.6 µM.
With `NC(=O)c1ncn(-c2cccnc2)c1N`, the Kd (3% DMSO) was 0.60 ± 0.06 µM.
`NC(=O)c1nc[nH]c1N` yielded a Kd of 41 ± 4 µM.
Regarding `NC(=O)c1ncn([C@@H]2O[C@H](COP(=O)(O)O)[C@@H](O)[C@H]2O)c1N`, the Kd was found to be 0.32 ± 0.13 µM.
`NC(=O)c1ncn(-c2ccccn2)c1N` displayed a Kd of 5.6 ± 3.2 µM. Against the preceding compound, the Kd is about 18-fold higher.
